Measurements as given in patent US12006317B1, “5-substituted aminopyrimido [6′,1′:2,3] imidazo [4,5-c] [2,6] naphthyridine compounds as CK2 inhibitors” (KING FAISAL UNIVERSITY, priority 2023, dated 2024).

How the values were obtained:
[1] = system: H1299 (lung) cancer cells; assay: In vitro cytotoxic activity MTT assay, H1299; type: cell-based; settings: Homo sapiens, NCI-H1299, cells exposed for 96 hours, read-out: IC50, 50% inhibition of cell proliferation
Protocol: (§1) Compounds 1-12 were screened for their in vitro cytotoxic activity utilizing a 3-(4,5-dimethyl-thiazol-2-yl)-2,5-diphenyltetrazolium bromide (MTT) assay against selected cancer human cell lines consisting of PC3 (prostate), HCT116 (colon), A375 (melanoma), H1299 (lung), MIAPaCa-2 (pancreas), HL60 (leukemia), MCF7 (breast), MDA-MB-231 (breast) (T. Mosmann, J. Immmol. Meth., 1983, 65, 55-63). The cells were cultured at 37° C. in RMPI1640 medium supplemented with 10% fetal bovine serum, 50 IU/mL penicillin, and 50 μg/mL streptomycin in a 5% CO2 incubator. All cells were sub-cultured 3 times/week by trypsinisation. Viable cells were seeded and allowed to adhere for 12 h before a test drug was added in 96-well plates at an initial density of 1.0×10^5 cells/mL. Tumour cell lines were separately exposed to various concentrations of the tested compounds followed by incubation at a temperature of 37° C. during 96 h inside a medium of fresh RMPI 1640. Cells were subsequently incubated at 37° C. using MTT at 0.5 mg/mL during 4 h. After removal of supernatant, formazan crystals were dissolved in isopropanol and the optical density was measured at 570 nm. CX-4945 was used as a positive control.

[2] = system: MDA-MB-231 (breast) cancer cells; assay: In vitro cytotoxic activity MTT assay, MDA-MB-231; type: cell-based; settings: Homo sapiens, cells exposed for 96 hours, read-out: IC50, 50% inhibition of cell proliferation
Protocol: as §1

[3] = system: HCT116 (colon) cancer cells; assay: In vitro cytotoxic activity MTT assay, HCT116; type: cell-based; settings: Homo sapiens, HCT-116, cells exposed for 96 hours, read-out: IC50, 50% inhibition of cell proliferation
Protocol: as §1

[4] = target: T1, recombinant human CK2 (RRββ-holoenzyme) (Homo sapiens, UniProt P68400); assay: CK2 Kinase Assay (33P-ATP, substrate peptide RRRDDDSDDD); type: biochemical; settings: final ATP concentration 15 μM, 10 min at 30° C.; read-out: protein kinase CK2 IC50
T1 construct: purchased Millipore
Protocol: CK2 Kinase Assay was conducted using the protocol as described in Pierre F. et al; J. Med. Chem. 2011, 54, 635-654. The tested compounds in aqueous solution were added at a volume of 10 μL to a reaction mixture comprising 10 μL of assay dilution buffer (ADB; 20 mM MOPS, pH 7.2, 25 mM β-glycerol phosphate, 5 mM EGTA, 1 mM sodium orthovanadate, and 1 mM dithiothreitol), 10 μL of substrate peptide (RRRDDDSDDD, dissolved in ADB at a concentration of 1 mM), 10 μL of recombinant human CK2 (RRββ-holoenzyme, 25 ng dissolved in ADB; Millipore). Reactions were initiated by the addition of 10 μL of ATP solution (90% 75 mM MgCl2, 75 μM ATP (final ATP concentration:15 μM) dissolved in ADB; 10% [γ-33P] ATP (stock 1 mCi/100 μL; 3000 Ci/mmol (Perkin-Elmer) and maintained for 10 min at 30° C. The reactions were quenched with 100 μL of 0.75% phosphoric acid and then transferred to and filtered through a phosphor cellulose filter plate (Millipore). After washing each well five times with 0.75% phosphoric acid, the plate was dried under vacuum for 5 min and, following the addition of 15 μL of scintillation fluid to each well, the residual radioactivity was measured using a Wallac […]. The IC50 values were derived from eight concentrations of test inhibitors.

[5] = system: PC3 (prostate) cancer cells; assay: In vitro cytotoxic activity MTT assay, PC3; type: cell-based; settings: Homo sapiens, Prostate cell, cells exposed for 96 hours, read-out: IC50, 50% inhibition of cell proliferation
Protocol: as §1

[6] = system: HL60 (leukemia) cancer cells; assay: In vitro cytotoxic activity MTT assay, HL60; type: cell-based; settings: Homo sapiens, HL-60, cells exposed for 96 hours, read-out: IC50, 50% inhibition of cell proliferation
Protocol: as §1

[7] = system: A375 (melanoma) cancer cells; assay: In vitro cytotoxic activity MTT assay, A375; type: cell-based; settings: Homo sapiens, A-375, cells exposed for 96 hours, read-out: IC50, 50% inhibition of cell proliferation
Protocol: as §1

[8] = system: MCF7 (breast) cancer cells; assay: In vitro cytotoxic activity MTT assay, MCF7; type: cell-based; settings: Homo sapiens, cells exposed for 96 hours, read-out: IC50, 50% inhibition of cell proliferation
Protocol: as §1

[9] = system: MIAPaCa-2 (pancreas) cancer cells; assay: In vitro cytotoxic activity MTT assay, MIAPaCa-2; type: cell-based; settings: Homo sapiens, MIA PaCa-2, cells exposed for 96 hours, read-out: IC50, 50% inhibition of cell proliferation
Protocol: as §1

T1 sequence (P68400 whole entry): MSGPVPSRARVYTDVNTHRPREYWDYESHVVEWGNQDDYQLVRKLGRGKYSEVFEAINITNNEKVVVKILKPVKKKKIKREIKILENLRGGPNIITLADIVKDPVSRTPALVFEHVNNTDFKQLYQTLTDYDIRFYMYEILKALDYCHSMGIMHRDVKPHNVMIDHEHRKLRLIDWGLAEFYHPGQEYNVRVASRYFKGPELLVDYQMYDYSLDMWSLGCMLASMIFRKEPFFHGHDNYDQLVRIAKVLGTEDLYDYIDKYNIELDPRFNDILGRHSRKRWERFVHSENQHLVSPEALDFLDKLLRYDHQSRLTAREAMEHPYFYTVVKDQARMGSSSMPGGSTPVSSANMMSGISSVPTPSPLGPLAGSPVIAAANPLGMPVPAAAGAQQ
T1 sequence (P67870 whole entry partner): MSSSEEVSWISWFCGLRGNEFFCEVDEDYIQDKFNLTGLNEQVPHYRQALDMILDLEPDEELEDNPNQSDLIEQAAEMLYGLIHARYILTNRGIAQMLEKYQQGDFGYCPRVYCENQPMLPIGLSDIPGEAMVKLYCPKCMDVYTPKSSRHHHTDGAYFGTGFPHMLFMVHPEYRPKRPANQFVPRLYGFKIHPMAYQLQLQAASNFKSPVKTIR

In the case of `Clc1cccc(Nc2nc3c(nc4ccncn43)c3cnccc23)c1` [Compound 1, N-(3-chlorophenyl)pyrimido[6′,1′:2,3]imidazo[4,5-c][2,6]naphthyridin-5-amine], the IC50 [1] is reported as 2.1 µM, the IC50 [2] is reported as 3.9 µM and the IC50 [3] is reported as 1.2 µM. It also gave an IC50 [4] of 0.012 µM, an IC50 [5] of 1.3 µM and an IC50 [6] of 3.4 µM. For the same compound, the IC50 [7] was 2.8 µM, the IC50 [8] was 5.1 µM and the IC50 [9] was 0.9 µM.
